{
  "source": "patent US20180191016A1",
  "about": "“FLOW BATTERIES INC[…] PHE[…] WITHIN AN AQUEOUS ELECTROLYTE SOLUTION” (LOCKHEED MARTIN ADVANCED ENERGY STORAGE, LLC, priority 2017, published 2018)",
  "origin": "cited, not measured here",
  "conditions": "compared to a reversible hydrogen electrode",
  "data": [
    {"compound": "c1ccc2c(c1)Nc1ccccc1S2", "note": "[phenothiazine]", "values": [
      {"measurement": "standard reduction potential", "result": "approximately +0.9 V"}
    ]}
  ]
}
